# pIC50: −log10 of the molar value. Non-standard residues stand in square brackets, D forms with d. Residues, ends and D or L forms follow the SMILES beside them. *: point of attachment. Phe(4-Cl) = N[C@@H](Cc1ccc(Cl)cc1)C(=O)O; hArg = N=C(N)NCCCC[C@H](N)C(=O)O; 12Ado = NCCCCCCCCCCCC(=O)O; Nle = CCCC[C@H](N)C(=O)O; Orn = NCCC[C@H](N)C(=O)O; Abu = CC[C@H](N)C(=O)O; PhAc = O=C(Cc1ccccc1)*
# Experiments:
# [1] = target: T1, membrane GHRH-receptors on human anterior pituitary cells (Homo sapiens, UniProt Q02643); assay: Receptor binding, displacement of 125I-[His1,Nle27]-hGH-RH(1-32)NH2 on human pituitary membranes
# T1 construct: Human pituitary was purchased from the National Hormone and Peptide Program; tissue National Hormone and Peptide Program; host or cells: human pituitary (membrane fractions)
# T1 sequence (Q02643 23-423): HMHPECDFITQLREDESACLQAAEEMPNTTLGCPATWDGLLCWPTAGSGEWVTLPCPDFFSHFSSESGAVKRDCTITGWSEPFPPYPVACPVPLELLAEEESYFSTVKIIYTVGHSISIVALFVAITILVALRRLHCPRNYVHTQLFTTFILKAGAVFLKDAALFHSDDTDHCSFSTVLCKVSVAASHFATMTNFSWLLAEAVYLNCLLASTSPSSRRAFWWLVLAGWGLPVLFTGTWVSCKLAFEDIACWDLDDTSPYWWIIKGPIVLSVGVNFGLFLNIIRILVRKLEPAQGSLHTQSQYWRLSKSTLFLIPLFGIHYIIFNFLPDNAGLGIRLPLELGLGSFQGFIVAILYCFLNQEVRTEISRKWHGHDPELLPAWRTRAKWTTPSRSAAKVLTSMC
# In short: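 Membrane fractions from human pituitary; peptides displace 125I-[His1,Nle27]-hGH-RH(1-32)NH2. IC50 is the dose giving 50% inhibition of specific binding, from duplicate tubes. Relative affinity is the ratio of test IC50 to hGH-RH(1-29)NH2 IC50.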
# MX-1 breast cancer cells = assay: In vitro cell viability, MX-1; format: cell-based, human; conditions: antagonist 5 μM for 72 h, cell proliferation assay; MIA602 = 1
# Procedure: (§1) The inhibitory effects of the various synthesized GHRH antagonists were tested in cell proliferation assays in various human cancer cell lines including stomach cancer (KATOIII, N87), colon cancer (HT-29), urothelial cancer (J82, RT4), pancreatic cancer (PANC-1, CFPAC-1), prostatic cancer (PC3), breast cancer (MX-1, HCC1806), ovarian cancer (SK-OV-3, OVCAR-3) and lung cancer (HCC827, H460).
# (§2) Cell culture. Human cancer cell lines including pancreatic (PANC-1 and CFPAC-1), lung (HCC827 and H460), stomach (NCI-N87 and KATOIII), urothelial (J82, RT4), prostatic (PC3), breast (MX-1 and HCC 1806), colorectal (HT-29), and ovarian (SK-OV-3 and OVCAR-3) were obtained from the American Type Culture Collection (ATCC) and cultured at 37° C. in a humidified 95% air/5% CO2 atmosphere in the medium recommended by ATCC.
# (§3) In vitro cell viability. Cell viability was analyzed as follows: cancer cells including pancreatic (PANC-1 and CFPAC-1), lung (HCC827 and H460), stomach (NCI-N87 and KATOIII), urothelial (J82, RT4), prostatic (PC3) and breast (MX-1 and HCC 1806), colorectal (HT-29) and ovarian (SK-OV-3 and OVCAR-3) were grown on 96 well plates to ˜60% confluence, the cells were starved for 24 h in culture medium containing 0.5% FBS. Cells were then treated with GHRH antagonists MIA602 AVR compounds at concentrations of 1, 2.5 or 5 μM, or vehicle (0.1% DMSO) in quintuplicates for 72 hours. The medium was replaced every 48 hours. Cell viability was measured using CellTiter 96 aqueous one solution kit (Promega). Inhibitory effects of tested AVR compounds in comparison to that of MIA602 are presented as inhibitory potency.
# (§4) Inhibitory effects of selected AVR compounds in comparison to that of MIA602 are presented as inhibitory potency (e.g., percentage of inhibition). […] The cell lines tested including lung cancer HCC827 (FIG. 2A), pancreatic cancer CFPAC-1 (FIG. 2B), stomach cancer N87 (FIG. 2C), colon cancer HT-29 (FIG. 2D), breast cancers MX-1 and HCC1806 (FIGS. 2 E, F). Based on the results of cell proliferation assay after cancer cells were treated with antagonist at concentration of 5 μM for 72H, the relative inhibitory potency of AVR antagonists in comparison to MIA-602 is summarized in Table 3 A and B. Over 60 AVR compounds were tested in 12 cancer cell lines.
# (§5) Based on the results of cell proliferation assay after cancer cells were treated with antagonist at concentration of 5 µM for 72H, * at concentration of 2 µM for 72 H.
# [2] = tested on: CFPAC-1 pancreatic cancer cells; assay: In vitro cell viability, CFPAC-1; format: cell-based, human; conditions: antagonist 5 μM for 72 h, cell proliferation assay; MIA602 = 1
# In short: (§6)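 Potency is reported as percent inhibition of viability compared with the reference antagonist MIA602, measured with CellTiter 96 aqueous one solution reagent. Serum-starved cells (0.5% FBS, 24 h) were treated for 72 h, mostly at 5 μM, otherwise 2 μM.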
# [3] = tested on: KATOIII stomach cancer cells; assay: In vitro cell viability, KATOIII; format: cell-based, human; conditions: antagonist 5 μM for 72 h, cell proliferation assay; MIA602 = 1
# In short: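 Cells grown to ~60% confluence, serum-starved 24 h in 0.5% FBS, then treated with antagonists at 1, 2.5 or 5 μM or vehicle (0.1% DMSO) in quintuplicate for 72 h, medium replaced every 48 h. Viability read by MTS-type CellTiter 96 AQueous One assay; expressed as inhibitory potency relative to MIA602.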
# HCC827 lung cancer cells = assay: In vitro cell viability, HCC827; format: cell-based, human; conditions: antagonist 5 μM for 72 h, cell proliferation assay; MIA602 = 1
# In short: as §6
# [4] = tested on: NCI-N87 stomach cancer cells; assay: In vitro cell viability (CellTiter 96), N87; format: cell-based, human; conditions: antagonist 5 μM for 72 h, cell proliferation assay; MIA602 = 1
# Procedure: as §1, §2, §3, §4, §5
# [5] = tested on: J82 urothelial cancer cells; assay: In vitro cell viability, J82; format: cell-based, human; conditions: antagonist 5 μM for 72 h, cell proliferation assay; MIA602 = 1
# Procedure: as §1, §2, §3, §4
# [6] = tested on: PANC-1 pancreatic cancer cells; assay: In vitro cell viability, PANC-1; format: cell-based, human; conditions: antagonist 5 μM for 72 h, cell proliferation assay; MIA602 = 1
# Procedure: as §1, §2, §3, §4
# [7] = tested on: RT4 urothelial cancer cells; assay: In vitro cell viability, RT4; format: cell-based, human; conditions: antagonist 5 μM for 72 h, cell proliferation assay; MIA602 = 1
# Procedure: as §1, §2, §3
# (§7) Inhibitory effects of selected AVR compounds in comparison to that of MIA602 are presented as inhibitory potency (e.g., percentage of inhibition). […] The cell lines tested including lung cancer HCC827 (FIG. 2A), pancreatic cancer CFPAC-1 (FIG. 2B), stomach cancer N87 (FIG. 2C), colon cancer HT-29 (FIG. 2D), breast cancers MX-1 and HCC1806 (FIGS. 2 E, F). […]
# [8] = tested on: HCC1806 breast cancer cells; assay: In vitro cell viability, HCC1806; format: cell-based, human; conditions: antagonist 5 μM for 72 h, cell proliferation assay; MIA602 = 1
# Procedure: as §1, §2, §3, §4, §5
# [9] = tested on: PC3 prostatic cancer cells; assay: In vitro cell viability, PC3; format: cell-based, human; conditions: antagonist 5 μM for 72 h, cell proliferation assay; MIA602 = 1
# Procedure: as §1, §2, §3, §7
structure (smiles),measurement,setting,value
"CCCC[C@H](NC(=O)[C@@H](NC(=O)[C@H](CC(=O)O)NC(=O)[C@H](CCC(N)=O)NC(=O)[C@H](CC(C)C)NC(=O)[C@H](CC(C)C)NC(=O)[C@H](CCCN)NC(=O)[C@H](Cc1c[nH]cn1)NC(=O)[C@H](C)NC(=O)[C@H](CO)NC(=O)[C@H](CC(C)C)NC(=O)[C@H](CCC(N)=O)NC(=O)[C@H](CC)NC(=O)[C@H](CC(C)C)NC(=O)[C@@H](NC(=O)[C@H](CCCCN)NC(=O)[C@H](CCCNC(=N)N)NC(=O)[C@H](Cc1ccc(OC)cc1)NC(=O)[C@H](CCCNC(=N)N)NC(=O)[C@H](C)NC(=O)[C@@H](NC(=O)[C@H](Cc1ccc(Cl)cc1)NC(=O)[C@@H](NC(=O)[C@H](C)NC(=O)[C@H](CC(=O)O)NC(=O)[C@@H](CCCNC(=N)N)NC(=O)[C@H](Cc1ccc(O)cc1)NC(=O)CCCCCCCCCCCNC(=O)Cc1ccccc1)[C@@H](C)CC)[C@@H](C)O)C(C)C)[C@@H](C)CC)C(=O)N[C@H](CCCNC(=N)N)C(=O)N[C@@H](CCCCNC(=N)N)C(N)=O [AVR-104, PhAC-Ada-Tyr-DArg-Asp-Ala-Ile-Cpa-Thr-Ala-Arg-Tyr(Me)-Arg-Lys-Val-Leu-Abu-Gln-Leu-Ser-Ala-His-Orn-Leu-Leu-Gln-Asp-Ile-Nle-DArg-Har-NH2] ({PhAc-12Ado}-Y[dR]DAI[Phe(4-Cl)]TARY(Me)RKVL[Abu]QLSAH[Orn]LLQDI[Nle][dR][hArg]-NH2)",pIC50,[1],9.23
same,"relative inhibitory potency in comparison to MIA-602, Breast MX-1",MX-1 breast cancer cells,1.310
same,"relative inhibitory potency in comparison to MIA-602, Pancreatic CFPAC-1",[2],1.502
same,"relative inhibitory potency in comparison to MIA-602, Stomach KATOIII",[3],1.321
same,"relative inhibitory potency in comparison to MIA-602, Lung IICC827",HCC827 lung cancer cells,1.525
same,"relative inhibitory potency in comparison to MIA-602, Stomach N87",[4],2.291
same,"relative inhibitory potency in comparison to MIA-602, Urothelial J82",[5],3.377
same,"relative inhibitory potency in comparison to MIA-602, Pancreatic Panc-1",[6],1.114
same,"relative inhibitory potency in comparison to MIA-602, Urothelial RT4",[7],1.697
same,"relative inhibitory potency in comparison to MIA-602, Breast IICC1806",[8],1.220
same,"relative inhibitory potency in comparison to MIA-602, Prostatic PC3",[9],1.440
